Data from patent US20230278972A1, “SUBSTITUTED HALOALKYL SULFONANILIDE HERBICIDES” (FMC Corporation, priority 2020, published 2023).

Assays:
Assay type in all cases: in vivo
[1] = system: Pigweed, Palmer (palmer amaranth, palmer pigweed, Amaranthus palmeri); experiment: Test A1 preemergence, Pigweed, Palmer
Outline: (§1)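 Seeds were first planted into a blend of loam soil and sand and given a preemergence directed soil spray. In parallel, pots of the same soil were sown for postemergence application once plants reached 2 to 10 cm and the one- to two-leaf stage. Both used surfactant-containing non-phytotoxic solvent formulations.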

[2] = system: Ryegrass, Italian (Italian ryegrass, Lolium multiflorum); experiment: Test A1 preemergence, Ryegrass, Italian
Outline: as §1

[3] = system: soybean (Glycine max); experiment: Test A1 preemergence, soybean
Outline: as §1

[4] = system: corn (Zea mays); experiment: Test A1 postemergence, corn; details: Postemergence
Outline: as §1

[5] = system: wheat (Triticum aestivum); experiment: Test A1 postemergence, wheat; details: Postemergence
Outline: (§2)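 Herbicidal response was scored on plants treated either preemergence, by directed spray onto soil of a loam–sand blend after sowing, or postemergence on potted plants at the one- to two-leaf stage, 2–10 cm high. Test chemicals were carried in a non-phytotoxic solvent mix with surfactant.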

[6] = system: galium (catchweed bedstraw, Galium aparine); experiment: Test A1 postemergence, galium; details: Postemergence
Outline: as §2

[7] = system: ducksalad (Heteranthera limosa); experiment: Test B1 flooded paddy test, ducksalad; details: 250 g ai/ha, Flood, applied to paddy water, 2-leaf stage, visually evaluated after 10 to 14 days
Source text: A dash (-) response means no test result.

[8] = 31 g ai/ha, 0 to 100 scale (0 no effect, 100 complete control)
[9] = 125 g ai/ha, 0 to 100 scale, 0 no effect, 100 complete control
[10] = 31 g ai/ha, 0 to 100 scale (0 no effect, 100 complete control), 10 days

## Cc1c(NS(=O)(=O)C(F)(F)F)cc(C(=O)N2CCC(Cl)CC2)c(C)c1C [Compound 356]
[1]; [8]
  Plant response rating, Pigweed, Palmer: 50
[1]; [9]
  Plant response rating, Pigweed, Palmer: 100
[2]; [8]
  Plant response rating, Ryegrass, Italian: 0
[2]; [9]
  Plant response rating, Ryegrass, Italian: 40
[3]; [8]
  Plant response rating, Soybean: 0
[3]; [9]
  Plant response rating, Soybean: 80
[4]; [10]
  Plant response rating, Corn: 0
[4]; 125 g ai/ha, 0 to 100 scale
  Plant response rating, Corn: 40
[5]; [10]
  Plant response rating, Wheat: 0
[5]; 125 g ai/ha, 0 to 100 scale
  Plant response rating, Wheat: 30
[6]; [10]
  Plant response rating, Galium: 70
[6]; 125 g ai/ha, 0 to 100 scale
  Plant response rating, Galium: 100
[7]
  Plant response rating, Ducksalad (0 to 100 scale, 0 is no effect, 100 is complete control): 45

## Cc1c(NS(=O)(=O)C(F)(F)F)cc(C(=O)N2CCOCC2)c(C)c1Cl [Compound 290]
[1]; [8]
  Plant response rating, Pigweed, Palmer: 0
[1]; [9]
  Plant response rating, Pigweed, Palmer: 50
[2]; [8]
  Plant response rating, Ryegrass, Italian: 30
[2]; [9]
  Plant response rating, Ryegrass, Italian: 60
[3]; [8]
  Plant response rating, Soybean: 0
[3]; [9]
  Plant response rating, Soybean: 0
[4]; [10]
  Plant response rating, Corn: 0
[4]; 125 g ai/ha, 0 to 100 scale
  Plant response rating, Corn: 20
[5]; [10]
  Plant response rating, Wheat: 0
[5]; 125 g ai/ha, 0 to 100 scale
  Plant response rating, Wheat: 60
[6]; [10]
  Plant response rating, Galium: 80
[6]; 125 g ai/ha, 0 to 100 scale
  Plant response rating, Galium: 90
[7]
  Plant response rating, Ducksalad (0 to 100 scale, 0 is no effect, 100 is complete control): 65

## CCC1ON=C(c2cc(NS(=O)(=O)C(F)(F)F)c(C)cc2C)C1CC (centres unmarked) [Compound 343]
[1]; [8]
  Plant response rating, Pigweed, Palmer: 40
[1]; [9]
  Plant response rating, Pigweed, Palmer: 90
[2]; [8]
  Plant response rating, Ryegrass, Italian: 60
[2]; [9]
  Plant response rating, Ryegrass, Italian: 100
[3]; [8]
  Plant response rating, Soybean: 50
[3]; [9]
  Plant response rating, Soybean: 60
[4]; [10]
  Plant response rating, Corn: 10
[4]; 125 g ai/ha, 0 to 100 scale
  Plant response rating, Corn: 40
[5]; [10]
  Plant response rating, Wheat: 30
[5]; 125 g ai/ha, 0 to 100 scale
  Plant response rating, Wheat: 60
[6]; [10]
  Plant response rating, Galium: 70
[6]; 125 g ai/ha, 0 to 100 scale
  Plant response rating, Galium: 100
[7]
  Plant response rating, Ducksalad (0 to 100 scale, 0 is no effect, 100 is complete control): 45

## Cc1cc(C)c(C2=NOC3COCC23)cc1NS(=O)(=O)C(F)(F)F (centres unmarked) [Compound 297]
[1]; [8]
  Plant response rating, Pigweed, Palmer: 30
[1]; [9]
  Plant response rating, Pigweed, Palmer: 90
[2]; [8]
  Plant response rating, Ryegrass, Italian: 0
[2]; [9]
  Plant response rating, Ryegrass, Italian: 90
[3]; [8]
  Plant response rating, Soybean: 0
[3]; [9]
  Plant response rating, Soybean: 50
[4]; [10]
  Plant response rating, Corn: 0
[4]; 125 g ai/ha, 0 to 100 scale
  Plant response rating, Corn: 0
[5]; [10]
  Plant response rating, Wheat: 10
[5]; 125 g ai/ha, 0 to 100 scale
  Plant response rating, Wheat: 80
[6]; [10]
  Plant response rating, Galium: 80
[6]; 125 g ai/ha, 0 to 100 scale
  Plant response rating, Galium: 90
[7]
  Plant response rating, Ducksalad (0 to 100 scale, 0 is no effect, 100 is complete control): 50

## Cc1c(C(=O)N2CCC(F)CC2)cc(N(COC(=O)C(C)(C)C)S(=O)(=O)C(F)(F)F)c(C)c1C [Compound 361]
[1]; [8]
  Plant response rating, Pigweed, Palmer: 0
[1]; [9]
  Plant response rating, Pigweed, Palmer: 20
[2]; [8]
  Plant response rating, Ryegrass, Italian: 0
[2]; [9]
  Plant response rating, Ryegrass, Italian: 0
[3]; [8]
  Plant response rating, Soybean: 0
[3]; [9]
  Plant response rating, Soybean: 20
[4]; [10]
  Plant response rating, Corn: 0
[4]; 125 g ai/ha, 0 to 100 scale
  Plant response rating, Corn: 40
[5]; [10]
  Plant response rating, Wheat: 0
[5]; 125 g ai/ha, 0 to 100 scale
  Plant response rating, Wheat: 20
[6]; [10]
  Plant response rating, Galium: 80
[6]; 125 g ai/ha, 0 to 100 scale
  Plant response rating, Galium: 90
[7]
  Plant response rating, Ducksalad (0 to 100 scale, 0 is no effect, 100 is complete control): 65

## CCC1ON=C(c2cc(N(COC(=O)C(C)(C)C)S(=O)(=O)C(F)(F)F)c(C)cc2C)C1CC (centres unmarked) [Compound 347]
[1]; [8]
  Plant response rating, Pigweed, Palmer: 20
[1]; [9]
  Plant response rating, Pigweed, Palmer: 50
[2]; [8]
  Plant response rating, Ryegrass, Italian: 0
[2]; [9]
  Plant response rating, Ryegrass, Italian: 0
[3]; [8]
  Plant response rating, Soybean: 0
[3]; [9]
  Plant response rating, Soybean: 0
[4]; [10]
  Plant response rating, Corn: 0
[4]; 125 g ai/ha, 0 to 100 scale
  Plant response rating, Corn: 10
[5]; [10]
  Plant response rating, Wheat: 0
[5]; 125 g ai/ha, 0 to 100 scale
  Plant response rating, Wheat: 40
[6]; [10]
  Plant response rating, Galium: 30
[6]; 125 g ai/ha, 0 to 100 scale
  Plant response rating, Galium: 100
[7]
  Plant response rating, Ducksalad (0 to 100 scale, 0 is no effect, 100 is complete control): 55

## Cc1c(C(=O)N2CCCCC2)cc(N(COC(=O)C(C)(C)C)S(=O)(=O)C(F)(F)F)c(C)c1C [Compound 329, [[(Trifluoromethyl)sulfonyl][2,3,4-trimethyl-5-(1-piperidinylcarbonyl)phenyl]amino]methyl 2,2-dimethylpropanoate]
[1]; [8]
  Plant response rating, Pigweed, Palmer: 10
[1]; [9]
  Plant response rating, Pigweed, Palmer: 50
[2]; [8]
  Plant response rating, Ryegrass, Italian: 0
[2]; [9]
  Plant response rating, Ryegrass, Italian: 0
[3]; [8]
  Plant response rating, Soybean: 0
[3]; [9]
  Plant response rating, Soybean: 0
[4]; [10]
  Plant response rating, Corn: 0
[4]; 125 g ai/ha, 0 to 100 scale
  Plant response rating, Corn: 0
[5]; [10]
  Plant response rating, Wheat: 0
[5]; 125 g ai/ha, 0 to 100 scale
  Plant response rating, Wheat: 0
[6]; [10]
  Plant response rating, Galium: 50
[6]; 125 g ai/ha, 0 to 100 scale
  Plant response rating, Galium: 80
[7]
  Plant response rating, Ducksalad (0 to 100 scale, 0 is no effect, 100 is complete control): 60

## Cc1cc(C)c(N(C(=O)OCC(C)C)S(=O)(=O)C(F)(F)F)cc1C1=NOC2CCCC12 (centres unmarked) [Compound 299]
[1]; [8]
  Plant response rating, Pigweed, Palmer: 0
[1]; [9]
  Plant response rating, Pigweed, Palmer: 70
[2]; [8]
  Plant response rating, Ryegrass, Italian: 50
[2]; [9]
  Plant response rating, Ryegrass, Italian: 60
[3]; [8]
  Plant response rating, Soybean: 0
[3]; [9]
  Plant response rating, Soybean: 0
[4]; [10]
  Plant response rating, Corn: 0
[4]; 125 g ai/ha, 0 to 100 scale
  Plant response rating, Corn: 0
[5]; [10]
  Plant response rating, Wheat: 30
[5]; 125 g ai/ha, 0 to 100 scale
  Plant response rating, Wheat: 70
[6]; [10]
  Plant response rating, Galium: 40
[6]; 125 g ai/ha, 0 to 100 scale
  Plant response rating, Galium: 60
[7]
  Plant response rating, Ducksalad (0 to 100 scale, 0 is no effect, 100 is complete control): 55

## Cc1c(NS(=O)(=O)C(F)(F)F)cc(C(=O)N(C)C)c(C)c1Cl [Compound 287]
[1]; [8]
  Plant response rating, Pigweed, Palmer: 0
[1]; [9]
  Plant response rating, Pigweed, Palmer: 90
[2]; [8]
  Plant response rating, Ryegrass, Italian: 70
[2]; [9]
  Plant response rating, Ryegrass, Italian: 90
[3]; [8]
  Plant response rating, Soybean: 0
[3]; [9]
  Plant response rating, Soybean: 30
[4]; [10]
  Plant response rating, Corn: 0
[4]; 125 g ai/ha, 0 to 100 scale
  Plant response rating, Corn: 0
[5]; [10]
  Plant response rating, Wheat: 0
[5]; 125 g ai/ha, 0 to 100 scale
  Plant response rating, Wheat: 10
[6]; [10]
  Plant response rating, Galium: 0
[6]; 125 g ai/ha, 0 to 100 scale
  Plant response rating, Galium: 0
[7]
  Plant response rating, Ducksalad (0 to 100 scale, 0 is no effect, 100 is complete control): 75

## CCOC(=O)N(c1cc(C(=O)N2CCCCC2)c(C)c(C)c1C)S(=O)(=O)C(F)(F)F [Compound 330, Ethyl N-[(trifluoromethyl)sulfonyl]-N-[2,3,4-trimethyl-5-(1-piperidinylcarbonyl)phenyl]carbamate]
[1]; [8]
  Plant response rating, Pigweed, Palmer: 70
[1]; [9]
  Plant response rating, Pigweed, Palmer: 80
[2]; [8]
  Plant response rating, Ryegrass, Italian: 0
[2]; [9]
  Plant response rating, Ryegrass, Italian: 90
[3]; [8]
  Plant response rating, Soybean: 0
[3]; [9]
  Plant response rating, Soybean: 30
[4]; [10]
  Plant response rating, Corn: 0
[4]; 125 g ai/ha, 0 to 100 scale
  Plant response rating, Corn: 10
[5]; [10]
  Plant response rating, Wheat: 0
[5]; 125 g ai/ha, 0 to 100 scale
  Plant response rating, Wheat: 30
[6]; [10]
  Plant response rating, Galium: 50
[6]; 125 g ai/ha, 0 to 100 scale
  Plant response rating, Galium: 60
[7]
  Plant response rating, Ducksalad (0 to 100 scale, 0 is no effect, 100 is complete control): 95

## Cc1cc(C)c(N(COC(=O)N(C)C)S(=O)(=O)C(F)(F)F)cc1C1=NOC2CCCC12 (centres unmarked) [Compound 317]
[1]; [8]
  Plant response rating, Pigweed, Palmer: 0
[1]; [9]
  Plant response rating, Pigweed, Palmer: 0
[2]; [8]
  Plant response rating, Ryegrass, Italian: 0
[2]; [9]
  Plant response rating, Ryegrass, Italian: 0
[3]; [8]
  Plant response rating, Soybean: 0
[3]; [9]
  Plant response rating, Soybean: 0
[4]; [10]
  Plant response rating, Corn: 0
[4]; 125 g ai/ha, 0 to 100 scale
  Plant response rating, Corn: 0
[5]; [10]
  Plant response rating, Wheat: 0
[5]; 125 g ai/ha, 0 to 100 scale
  Plant response rating, Wheat: 0
[6]; [10]
  Plant response rating, Galium: 0
[6]; 125 g ai/ha, 0 to 100 scale
  Plant response rating, Galium: 0
[7]
  Plant response rating, Ducksalad (0 to 100 scale, 0 is no effect, 100 is complete control): 30
